Experimental data from patent US20230329236A1, “HERBICIDAL PYRIMIDINE DERIVATIVES” (MoA Technology Limited, priority 2020, published 2023).

What was measured:
Details in all cases: 336 h, Table 3, post-emergence, 14±1 days post application
[1] = tested on: Amaranthus retroflexus (AMARE); assay: Post-emergence glasshouse test, visual injury, AMARE; format: in vivo
Protocol: (§1) Seeds of a variety of test species are grown in a sandy loam soil mixture, Lolium multiflorum (LOLMU), Amaranthus retroflexus (AMARE), Echinochloa crus-gaffi (ECHCG), Veronica persica (VERPE), Glycine max (GLXMA), Oryza sativa (ORYSA), Zea mays (ZEAMX), spring wheat (TRZAS), Ipomoea hederacea (IPOHE), Ipomoea purpurea (PHBPU), Stellaria media (STEME), Solanum nigrum (SOLNI), Digitaria sanguinalis (DIGSA), Setaria italica (SETIT), Alopecurus myosuroides (ALOMY) and Avena fatua (AVEFA).
(§2) After sowing, at growth stage BBCH 12-14 (post-emergence), the plants are sprayed with an aqueous spray solution derived from the formulation of the technical active ingredient in acetone/water (50:50) solution containing 0.5% Tween 20 (polyoxyethlyene sorbitan monolaureate, CAS RN 9005-64-5). The test compounds are applied at the required concentration of active ingredient in g/ha. The test plants are then grown in a glasshouse under controlled environmental conditions and watered regularly as required. After 14±1 days post application (for post-emergence test), the test is evaluated by assessing the percentage damage caused to the plants in comparison with the untreated plots. The biological activities for post-emergence testing are shown below (Table 3 and Table 4) as a % visual injury.

Veronica persica (VERPE) = assay: Post-emergence glasshouse test, visual injury, VERPE; format: in vivo
Protocol: as §1, §2

[2] = tested on: Echinochloa crus-gaffi (ECHCG); assay: Post-emergence glasshouse test, visual injury, ECHCG; format: in vivo, Echinochloa crus-galli
Protocol: as §1, §2

[3] = tested on: Lolium multiflorum (LOLMU); assay: Post-emergence glasshouse test, visual injury, LOLMU; format: in vivo
Protocol: as §1, §2

Cc1cc(-c2cnc(N3CCN(c4ncccn4)CC3)nc2-c2ccc(C)o2)on1 [Compound 89]
pest or weed control at 125 g/ha [1]: 0%
pest or weed control at 125 g/ha (Veronica persica (VERPE)): 5%
pest or weed control at 125 g/ha [2]: 0%
pest or weed control at 125 g/ha [3]: 5%

Cc1cc(-c2cnc(N3CCCCC3)nc2C(C)(C)C)on1 [Compound 48]
pest or weed control at 500 g/ha [1]: 20%
pest or weed control at 500 g/ha (Veronica persica (VERPE)): 0%
pest or weed control at 500 g/ha [2]: 10%
pest or weed control at 500 g/ha [3]: 70%

Cc1cc(-c2cnc(N(C)C3CCCC3)nc2C(C)C)on1 [Compound 9]
pest or weed control at 125 g/ha [1]: 95%
pest or weed control at 125 g/ha (Veronica persica (VERPE)): 80%
pest or weed control at 125 g/ha [2]: 60%
pest or weed control at 125 g/ha [3]: 60%

Cc1cc(-c2cnc(NCCN3CCCC3=O)nc2C(C)C)on1 [Compound 42]
pest or weed control at 500 g/ha [1]: 70%
pest or weed control at 500 g/ha (Veronica persica (VERPE)): 60%
pest or weed control at 500 g/ha [2]: 50%
pest or weed control at 500 g/ha [3]: 10%

Cc1cc(-c2cnc(NC3CCC3)nc2C2CC2)on1 [Compound 12]
pest or weed control at 250 g/ha ([1]; 250 g/ha): 100%
pest or weed control at 250 g/ha (Veronica persica (VERPE); 250 g/ha): 100%
pest or weed control at 250 g/ha ([2]; 250 g/ha): 90%
pest or weed control at 250 g/ha ([3]; 250 g/ha): 30%

Cc1cc(-c2cnc(N(C)C3CCCC3)nc2C(F)(F)F)on1 [Compound 112]
pest or weed control at 125 g/ha [1]: 20%
pest or weed control at 125 g/ha (Veronica persica (VERPE)): 0%
pest or weed control at 125 g/ha [2]: 0%
pest or weed control at 125 g/ha [3]: 20%

Cc1cc(-c2cnc(N3CCOCC3)nc2-c2ccc(C)o2)on1 [Compound 72]
pest or weed control at 500 g/ha [1]: 90%
pest or weed control at 500 g/ha (Veronica persica (VERPE)): 0%
pest or weed control at 500 g/ha [2]: 30%
pest or weed control at 500 g/ha [3]: 0%

Cc1cc(-c2cnc(NC3CCCC3)nc2C2CCC2)on1 [Compound 104]
pest or weed control at 125 g/ha [1]: 40%
pest or weed control at 125 g/ha (Veronica persica (VERPE)): 60%
pest or weed control at 125 g/ha [2]: 0%
pest or weed control at 125 g/ha [3]: 0%

Cc1cc(-c2cnc(N3CCCC(O)C3)nc2C2CC2)on1 (stereo not shown) [Compound 57]
pest or weed control at 500 g/ha [1]: 70%
pest or weed control at 500 g/ha (Veronica persica (VERPE)): 0%
pest or weed control at 500 g/ha [2]: 50%
pest or weed control at 500 g/ha [3]: 0%

Cc1cc(-c2cnc(N)nc2C(F)(F)F)on1 [Compound 122]
pest or weed control at 125 g/ha [1]: 20%
pest or weed control at 125 g/ha (Veronica persica (VERPE)): 0%
pest or weed control at 125 g/ha [2]: 0%
pest or weed control at 125 g/ha [3]: 0%

Cc1cc(-c2cnc(NCc3ccccc3)nc2C(C)C)on1 [Compound 94]
pest or weed control at 62 g/ha ([1]; 62 g/ha): 60%
pest or weed control at 62 g/ha (Veronica persica (VERPE); 62 g/ha): 0%
pest or weed control at 62 g/ha ([2]; 62 g/ha): 80%
pest or weed control at 62 g/ha ([3]; 62 g/ha): 10%

Cc1cc(-c2cnc(N3CCN(S(=O)(=O)N(C)C)CC3)nc2C2CC2)on1 [Compound 53]
pest or weed control at 500 g/ha [1]: 20%
pest or weed control at 500 g/ha (Veronica persica (VERPE)): 0%
pest or weed control at 500 g/ha [2]: 50%
pest or weed control at 500 g/ha [3]: 20%

Cc1cc(-c2cnc(NC(C)(C)C)nc2C(C)C)on1 [Compound 5]
pest or weed control at 125 g/ha [1]: 100%
pest or weed control at 125 g/ha (Veronica persica (VERPE)): 100%
pest or weed control at 125 g/ha [2]: 70%
pest or weed control at 125 g/ha [3]: 60%

Cc1cc(-c2cnc(N3CCCCC3)nc2C(C)C)on1 [Compound 56]
pest or weed control at 500 g/ha [1]: 70%
pest or weed control at 500 g/ha (Veronica persica (VERPE)): 0%
pest or weed control at 500 g/ha [2]: 0%
pest or weed control at 500 g/ha [3]: 10%

Cc1cc(-c2cnc(N3CCC(C(N)=O)CC3)nc2C(C)(C)C)on1 [Compound 26]
pest or weed control at 500 g/ha [1]: 0%
pest or weed control at 500 g/ha (Veronica persica (VERPE)): 60%
pest or weed control at 500 g/ha [2]: 30%
pest or weed control at 500 g/ha [3]: 0%

Cc1cc(-c2cnc(NC3CCCc4sc(Cl)cc43)nc2C(C)C)on1 (stereo not shown) [Compound 3]
pest or weed control at 125 g/ha [1]: 60%
pest or weed control at 125 g/ha (Veronica persica (VERPE)): 10%
pest or weed control at 125 g/ha [2]: 60%
pest or weed control at 125 g/ha [3]: 0%

Cc1cc(-c2cnc(NCCCN3CCC(C)CC3)nc2-c2ccco2)on1 [Compound 25]
pest or weed control at 500 g/ha [1]: 30%
pest or weed control at 500 g/ha (Veronica persica (VERPE)): 0%
pest or weed control at 500 g/ha [2]: 30%
pest or weed control at 500 g/ha [3]: 0%

Cc1cc(-c2cnc(NC3CCOCC3)nc2C(F)(F)F)on1 [Compound 116]
pest or weed control at 125 g/ha [1]: 0%
pest or weed control at 125 g/ha (Veronica persica (VERPE)): 95%
pest or weed control at 125 g/ha [2]: 0%
pest or weed control at 125 g/ha [3]: 0%

Cc1cc(-c2cnc(NC3CC3)nc2-c2ccc(C)o2)on1 [Compound 44]
pest or weed control at 500 g/ha [1]: 70%
pest or weed control at 500 g/ha (Veronica persica (VERPE)): 20%
pest or weed control at 500 g/ha [2]: 20%
pest or weed control at 500 g/ha [3]: 30%
